For orientation: EC50 means the midpoint of the concentration-response curve. The half-life is the time in which the quantity being followed falls by half. Low readings indicate fast loss, high ones slow loss.

These results are taken from patent publication US20260116922A1 (UNIVERSITAET WIEN, priority 2021, published 2026).

Data set [1] can be described thus: Stability in simulated intestinal fluid (SIF). The following applies: relative stability compared with SIF stability of oxytocin (8±1 min); SIF pH 6.8, pancreatin, 37° C.
Experimental: (§1) Simulated intestinal fluid (SIF). […] The solution was centrifuged, and syringe filtered before use.
(§2) Stability assay procedure. Stock solutions (1 mM) of test peptides were prepared in ddH2O. […] The peptide stock solution (30 μL) was added to the fluid, the mixture was vortexed and incubated at 37° C. […] All samples were centrifuged (5 min, 16,000×g) and stored at 4° C. before analysis.
(§3) RP-HPLC-UV(-MS) analysis of stability samples. […] 30 μL sample were injected on a Kromasil Classic C1S HPLC column (2.1×150 mm, 100 Å, 5 μm) equipped with a guard column (C18, 100 Å, 5 μm, 2.1 mm). […] Solvent A: 0.1% TFA in ddH2O. Solvent B: 0.08% TFA in ACN.
(§4) Data analysis. […] Peak areas (mAU×min) at individual time points were normalized to the mean value of time point zero (y(t0)=100%). To calculate compound half-lives (t1/2), a one-phase exponential decay function was fitted to normalized data points via a nonlinear regression in GraphPad Prism (Version 9) (GraphPad Software Inc., La Jolla, California, USA). The following constraints were applied: (i) y(t0) constant equal to 100, (ii) plateau constant equal to 0.
The target of data set [2] is T1, Human OTR (Homo sapiens, UniProt P30559).
T1 construct: expressed in transfected cells; host or cells: HEK293 (stably transfected, G418 selection)
T1 sequence (P30559 1-389): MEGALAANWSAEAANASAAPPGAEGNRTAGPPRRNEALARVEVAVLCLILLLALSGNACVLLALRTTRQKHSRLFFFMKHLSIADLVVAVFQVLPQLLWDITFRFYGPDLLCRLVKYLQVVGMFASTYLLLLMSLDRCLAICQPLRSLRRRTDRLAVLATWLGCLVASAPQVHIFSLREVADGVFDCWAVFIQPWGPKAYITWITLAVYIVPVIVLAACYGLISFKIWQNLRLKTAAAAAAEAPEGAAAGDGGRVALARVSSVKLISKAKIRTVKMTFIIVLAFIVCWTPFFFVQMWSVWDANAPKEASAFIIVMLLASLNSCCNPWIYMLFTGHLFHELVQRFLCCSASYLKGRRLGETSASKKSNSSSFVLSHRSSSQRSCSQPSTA
The experiment in a line: IP-1 accumulation in HEK293 cells stably expressing hOTR-GFP. The data set is classed as cell-based. The following applies: 1 h stimulation at 37° C., normalized to maximum OT response.
Experimental: Cell culture for functional assays.
Measurement of inositol phosphate one (IP-1) accumulation. HEK293 cells were cultured in DMEM supplemented with 10% FBS and penicillin/streptomycin (100 U mL^−1) at 37° C. and 5% CO2. Cells were transferred into white opaque 384-well plates (CellStar®, Greiner, Austria) at ˜10,000 cells per well 48 h prior to measurement. Quantitative measurements of receptor-mediated IP-1 were performed by competitive immunoassay utilizing the IP-One assay kit [9]. HEK293 cells were assayed as per the manufacturer's protocol. Briefly, at the time of analysis, the culture media was removed and replaced with IP-1 stimulation buffer. Cells were allowed to equilibrate in the stimulation buffer at 37° C. for 15 min, followed by addition of peptide ligands (to final concentrations of 1 μM-10 μM) and subsequent stimulation for 1 h at 37° C. The stimulation was terminated by lysis and the simultaneous addition of homogenous time-resolved fluorescence resonance energy transfer reagents. The lysates were incubated for 1 h at 25° C. Fluorescence emission measurements at 620 nm and 665 nm were performed using a Spark Multimode plate reader (Tecan, Switzerland) at an excitation wavelength of 340 nm. Results were analyzed as a ratio of fluorescence intensities of 665 nm to 620 nm. […]

The nature of data set [3]: in vitro. To be noted: simulated gi fluid.
A short description of data set [4]: in vitro. To be noted: simulated gi fluid, pH 6.8.
Experimental: as §1, §2, §3, §4

*1 amine or outer side, *2 acyl side, *3 side chain or, on linkers, in order; H or OH if unused. Where a SMILES comes first, the peptide text is derived from it. Bridges are numbered along the chain shown (N, C = ends). [ ]: non-standard residue; d: D form. The star is where a group is joined. N(4-F-Bzl)Gly = O=C(O)CNCc1ccc(F)cc1; αMeY = C[C@](N)(Cc1ccc(O)cc1)C(=O)O; Gly(cPent) = N[C@H](C(=O)O)C1CCCC1; αMeL = CC(C)C[C@](C)(N)C(=O)O; αMeV = CC(C)[C@](C)(N)C(=O)O; Thz = O=C(O)[C@@H]1CSCN1; X1 = O=C(CCC[*:2])[*:1]; Dap = NC[C@H](N)C(=O)O; Piv = CC(C)(C)C(=O)* A value given as a limit tells only on which side of the number the result lay.

As for `CC[C@H](C)[C@@H]1NC(=O)[C@H](Cc2ccc(O)cc2)NC(=O)[C@@H](N)CSSC[C@@H](C(=O)N2CCC[C@H]2C(=O)N[C@@H](CCCCNC(C)=O)C(=O)NCC(N)=O)NC(=O)[C@H](CC(N)=O)NC(=O)[C@H](CCC(N)=O)NC1=O` [Compound 1], the “SIF stability [fold OT]” value in data set [1] was 10-100 fold OT. The same measure, in the same setting: for `CC[C@H](C)[C@@H]1NC(=O)[C@H](Cc2ccc(O)cc2)NC(=O)[C@@H](N)CSSC[C@@H](C(=O)N2CCC[C@H]2C(=O)N[C@@H](CNC(C)=O)C(=O)NCC(N)=O)NC(=O)[C@H](CC(N)=O)NC(=O)[C@H](CCC(N)=O)NC1=O` [Compound 2] the value was 10-100 fold OT. Turning to `CC[C@H](C)[C@@H]1NC(=O)[C@H](Cc2ccc(O)cc2)NC(=O)[C@@H](N)CSSC[C@@H](C(=O)N2CCC[C@H]2C(=O)N[C@@](C)(CC(C)C)C(=O)NCC(N)=O)NC(=O)[C@H](CC(N)=O)NC(=O)[C@H](CCC(N)=O)NC1=O` [Compound 3], the “SIF stability [fold OT]” value in data set [1] is reported as 10-100 fold OT. On the same count and under the same terms, for `CC[C@H](C)[C@@H]1NC(=O)[C@H](Cc2ccc(O)cc2)NC(=O)[C@@H](N)CSSC[C@@H](C(=O)N2CCC[C@H]2C(=O)N[C@H](CC(=O)NCC(N)=O)CC(C)C)NC(=O)[C@H](CC(N)=O)NC(=O)[C@H](CCC(N)=O)NC1=O` [Compound 4] the value was 10-100 fold OT; for `CC[C@H](C)[C@@H]1NC(=O)[C@H](Cc2ccc(OC)cc2)NC(=O)CCCSC[C@@H](C(=O)N2CCC[C@H]2C(=O)N[C@@H](CCCCNC(C)=O)C(=O)NCC(N)=O)NC(=O)[C@H](CC(N)=O)NC(=O)[C@H](CCC(N)=O)NC1=O` [Compound 5] (Y(Me)IQNCPK(Ac)G-NH2; linker N-5 via X1), >100 fold OT.

With `CC[C@H](C)[C@@H]1NC(=O)[C@H](Cc2ccc(OC)cc2)NC(=O)CCCSC[C@@H](C(=O)N2CCC[C@H]2C(=O)N[C@@H](CNC(C)=O)C(=O)NCC(N)=O)NC(=O)[C@H](CC(N)=O)NC(=O)[C@H](CCC(N)=O)NC1=O` [Compound 6] (Y(Me)IQNCP[Dap](Ac)G-NH2; linker N-5 via X1), in data set [1], the “SIF stability [fold OT]” value is given as >100 fold OT. Still for that read-out and setting: in the case of `CC[C@H](C)[C@@H]1NC(=O)[C@H](Cc2ccc(OC)cc2)NC(=O)CCCSC[C@@H](C(=O)N2CCC[C@H]2C(=O)N[C@@](C)(CC(C)C)C(=O)NCC(N)=O)NC(=O)[C@H](CC(N)=O)NC(=O)[C@H](CCC(N)=O)NC1=O` [Compound 7] (Y(Me)IQNCP[αMeL]G-NH2; linker N-5 via X1) it was >100 fold OT. For `CC[C@H](C)[C@@H]1NC(=O)[C@H](Cc2ccc(OC)cc2)NC(=O)CCCSC[C@@H](C(=O)N(CC(=O)N[C@@H](CNC(C)=O)C(=O)NCC(N)=O)Cc2ccc(F)cc2)NC(=O)[C@H](CC(N)=O)NC(=O)[C@H](CCC(N)=O)NC1=O` [Compound 8] (Y(Me)IQNC[N(4-F-Bzl)Gly][Dap](Ac)G-NH2; linker N-5 via X1), the “SIF stability [fold OT]” value in data set [1] was 10-100 fold OT. For the same compound, in data set [2], the EC50 was > 500 nM. On to `CC[C@H](C)[C@@H]1NC(=O)[C@](C)(Cc2ccc(O)cc2)NC(=O)CCCSC[C@@H](C(=O)N2CCC[C@H]2C(=O)N[C@@H](CNC(C)=O)C(=O)NCC(N)=O)NC(=O)[C@H](CC(N)=O)NC(=O)[C@H](CCC(N)=O)NC1=O` [Compound 9] ([αMeY]IQNCP[Dap](Ac)G-NH2; linker N-5 via X1), for which the “SIF stability [fold OT]” value in data set [1] was >100 fold OT. The same measure, in the same setting: for `CC[C@H](C)[C@@H]1NC(=O)[C@](C)(Cc2ccccc2)NC(=O)CCCSC[C@@H](C(=O)N2CCC[C@H]2C(=O)N[C@@H](CNC(C)=O)C(=O)NCC(N)=O)NC(=O)[C@H](CC(N)=O)NC(=O)[C@H](CCC(N)=O)NC1=O` [Compound 10] the value was >100 fold OT. On the same count and under the same terms, for `CC[C@H](C)[C@@H]1NC(=O)[C@H](Cc2ccc(C)cc2)NC(=O)CCCSC[C@@H](C(=O)N2CCC[C@H]2C(=O)N[C@@H](CNC(C)=O)C(=O)NCC(N)=O)NC(=O)[C@H](CC(N)=O)NC(=O)[C@H](CCC(N)=O)NC1=O` [Compound 11] the value was 10-100 fold OT; for `CC[C@H](C)[C@@H]1NC(=O)[C@H](Cc2ccc(C(F)(F)F)cc2)NC(=O)CCCSC[C@@H](C(=O)N2CCC[C@H]2C(=O)N[C@@H](CNC(C)=O)C(=O)NCC(N)=O)NC(=O)[C@H](CC(N)=O)NC(=O)[C@H](CCC(N)=O)NC1=O` [Compound 12], >100 fold OT; for `CC[C@H](C)[C@@H]1NC(=O)[C@H](Cc2ccc(OC)cc2)NC(=O)CCCSC[C@@H](C(=O)N2CCC[C@H]2C(=O)N[C@@H](CNC(=O)C(C)(C)C)C(=O)NCC(N)=O)NC(=O)[C@H](CC(N)=O)NC(=O)[C@H](CCC(N)=O)NC1=O` [Compound 13] (Y(Me)IQNCP[Dap](Piv)G-NH2; linker N-5 via X1), > 100 fold OT. Still for that read-out and setting: in the case of `COc1ccc(C[C@@H]2NC(=O)CCCSC[C@@H](C(=O)N3CCC[C@H]3C(=O)N[C@@H](CNC(C)=O)C(=O)NCC(N)=O)NC(=O)[C@H](CC(N)=O)NC(=O)[C@H](CCC(N)=O)NC(=O)[C@H](C3CCCC3)NC2=O)cc1` [Compound 14] (Y(Me)[Gly(cPent)]QNCP[Dap](Ac)G-NH2; linker N-5 via X1) it was >100 fold OT. For the compound `CC(=O)NC[C@H](NC(=O)[C@@H]1CCCN1C(=O)[C@@H]1CSCCCC(=O)N[C@@H](Cc2ccc(O)cc2)C(=O)N[C@@](C)(C(C)C)C(=O)N[C@@H](CCC(N)=O)C(=O)N[C@@H](CC(N)=O)C(=O)N1)C(=O)NCC(N)=O` [Compound 15] (Y[αMeV]QNCP[Dap](Ac)G-NH2; linker N-5 via X1), the “SIF stability [fold OT]” value in data set [1] is on record as >100 fold OT.

Regarding `CC[C@H](C)[C@@H]1NC(=O)[C@](C)(Cc2ccc(O)cc2)NC(=O)CCCSC[C@@H](C(=O)N2CCC[C@H]2C(=O)N[C@@H](CCCCNC(C)=O)C(=O)NCC(N)=O)NC(=O)[C@H](CC(N)=O)NC(=O)[C@H](CCC(N)=O)NC1=O` [Compound 16] ([αMeY]IQNCPK(Ac)G-NH2; linker N-5 via X1), the “SIF stability [fold OT]” value in data set [1] is >100 fold OT.

For `CC[C@H](C)[C@@H]1NC(=O)[C@](C)(Cc2ccc(O)cc2)NC(=O)CCCSC[C@@H](C(=O)N2CSC[C@H]2C(=O)N[C@@H](CCCCNC(C)=O)C(=O)NCC(N)=O)NC(=O)[C@H](CC(N)=O)NC(=O)[C@H](CCC(N)=O)NC1=O` [Compound 17] ([αMeY]IQNC[Thz]K(Ac)G-NH2; linker N-5 via X1), the “SIF stability [fold OT]” value in data set [1] was >100 fold OT. Consider `CC(=O)NCCCC[C@H](NC(=O)[C@@H]1CSCN1C(=O)[C@@H]1CSCCCC(=O)N[C@@](C)(Cc2ccc(O)cc2)C(=O)N[C@@H](C2CCCC2)C(=O)N[C@@H](CCC(N)=O)C(=O)N[C@@H](CC(N)=O)C(=O)N1)C(=O)NCC(N)=O` [Compound 18] ([αMeY][Gly(cPent)]QNC[Thz]K(Ac)G-NH2; linker N-5 via X1), for which the “SIF stability [fold OT]” value in data set [1] was >100 fold OT. On the same count and under the same terms, in the case of `CC(=O)NCCCC[C@H](NC(=O)[C@@H]1CCCN1C(=O)[C@@H]1CSCCCC(=O)N[C@@H](Cc2ccc(O)cc2)C(=O)N[C@@](C)(C(C)C)C(=O)N[C@@H](CCC(N)=O)C(=O)N[C@@H](CC(N)=O)C(=O)N1)C(=O)NCC(N)=O` [Compound 19] (Y[αMeV]QNCPK(Ac)G-NH2; linker N-5 via X1) it was >100 fold OT; in that of `CC(=O)NCCCC[C@H](NC(=O)[C@@H]1CSCN1C(=O)[C@@H]1CSCCCC(=O)N[C@@H](Cc2ccc(O)cc2)C(=O)N[C@@](C)(C(C)C)C(=O)N[C@@H](CCC(N)=O)C(=O)N[C@@H](CC(N)=O)C(=O)N1)C(=O)NCC(N)=O` [Compound 20] (Y[αMeV]QNC[Thz]K(Ac)G-NH2; linker N-5 via X1), > 100 fold OT; in that of `COc1ccc(C[C@@H]2NC(=O)CCCSC[C@@H](C(=O)N3CCC[C@H]3C(=O)N[C@@H](CCCCNC(C)=O)C(=O)NCC(N)=O)NC(=O)[C@H](CC(N)=O)NC(=O)[C@H](CCC(N)=O)NC(=O)[C@H](C3CCCC3)NC2=O)cc1` [Compound 21] (Y(Me)[Gly(cPent)]QNCPK(Ac)G-NH2; linker N-5 via X1), >100 fold OT. The same measure, in the same setting: in the case of `CC[C@H](C)[C@@H]1NC(=O)[C@H](Cc2ccc(OC)cc2)NC(=O)CCCSC[C@@H](C(=O)N2CSC[C@H]2C(=O)N[C@@H](CCCCNC(C)=O)C(=O)NCC(N)=O)NC(=O)[C@H](CC(N)=O)NC(=O)[C@H](CCC(N)=O)NC1=O` [Compound 22] (Y(Me)IQNC[Thz]K(Ac)G-NH2; linker N-5 via X1) it was >100 fold OT; in that of `COc1ccc(C[C@@H]2NC(=O)CCCSC[C@@H](C(=O)N3CSC[C@H]3C(=O)N[C@@H](CCCCNC(C)=O)C(=O)NCC(N)=O)NC(=O)[C@H](CC(N)=O)NC(=O)[C@H](CCC(N)=O)NC(=O)[C@H](C3CCCC3)NC2=O)cc1` [Compound 23] (Y(Me)[Gly(cPent)]QNC[Thz]K(Ac)G-NH2; linker N-5 via X1), >100 fold OT.

On to `CC[C@H](C)[C@@H]1NC(=O)[C@H](Cc2ccc(O)cc2)NC(=O)[C@@H](N)CSSC[C@@H](C(=O)N2CCC[C@H]2C(=O)N[C@@H](CC(C)C)C(=O)NCC(N)=O)NC(=O)[C@H](CC(N)=O)NC(=O)[C@H](CCC(N)=O)NC1=O` [OT, oxytocin], for which the half-life in data set [3] was > 1440 min. For the same compound, in data set [4], the half-life at 50 µM is 8 ± 1 min.
